Data from patent US12529108B2, “Compositions, methods and kits for characterizing and screening for small cell ovarian carcinoma” (THE TRANSLATIONAL GENOMICS RESEARCH INSTITUTE, priority 2014, dated 2026).

Key:
[1] = tested on: SMARCA4/A2 negative SCCOHT cell lines BIN67 and SCCOHT1; assay: High-throughput screen of epigenetic agents, cell viability (CellTiter Glo); format: cell-based, human; details: 3-fold 20-point dilution series, viability 3 days after treatment (FIG. 21)
Experimental: FIG. 21 depicts SCCOHT sensitivity to epigenetic agents. Cells plated at 1,000 cells/well in a 384-well plate were treated with indicated agents using a serial 3-fold 20-point dilution series. Cell viability was measured 3 days after treatment using CellTiter Glo. Surviving cells were measured and normalized to DMSO-treated cells and IC50s calculated by curve-fitting.
Thus, as in MRTs, targeting epigenetic modifications may have therapeutic potential in SCCOHT. To evaluate the activity of a panel of epigenetic drugs in SCCOHT we performed high-throughput screening in the SMARCA4/A2 negative SCCOHT cell lines BIN67 and SCCOHT1. Effects of epigenetic modifiers from all main classes of epigenetic agents—modifiers of acetylated histones as well as inhibitors of DNA methylation, histone methyltransferases and HDACs—are shown in FIG. 21. BIN67 and SCCOHT1 cells are […] sensitive to many of these agents. […] We have found HDAC2 to be overexpressed in most SCCOHTs including these cell lines.

BIN67 = assay: Pilot compound screen (LOPAC and Prestwick libraries), cell viability (CellTiter Glo); format: cell-based, human; details: 5 μM and 10 μM; viability at 72 hours post-treatment; shared hits from HepG2 counterscreen filtered out
Source text: The BIN67 cell line has been characterized for optimal growth conditions, doubling time, cell seeding density, FBS concentration, siRNA transfection conditions (transfection reagent and lipid-to-siRNA ratio to achieve transfection efficiency of 95% or higher), and DMSO tolerance. We have also banked large numbers of BIN67 cells from the same passage to facilitate future screening. Furthermore, we have performed pilot compound and RNAi screens on this cell line.
In BIN67 we screened the LOPAC and Prestwick chemical libraries, diverse libraries of small molecules with good bioavailability and toxicity profiles. These libraries contain 2,400 drugs with subsets of FDA-approved drugs and pharmacologically active compounds. We completed 2 runs in BIN67 with duplicates at concentrations of 5 μM and 10 μM and measured cell viability at 72 hours post-treatment with CellTiter Glo (Promega). The high quality screen was exceeded NIH standards with covariance <5% and Z′-factor 0.83-0.91. […] Notable classes of lead compounds enriched in these hits included 9 cardiac glycosides, 6 tubulin polymerization inhibitors, 2 topoisomerase II inhibitors, and 2 Src/FGFR family kinase inhibitors. In particular, the tubulin inhibitors vincristine and […] are currently used clinically for SCCOHT patients. This serves as a positive confirmation for the robustness and reliability of our screen.

SCCOHT cell lines = assay: FGFR compounds profiling in a drug dose-dependent manner, cell viability; format: cell-based; details: Homo sapiens; both SCCOHT cell lines (FIG. 22B)
Experimental: FIGS. 22A and 22B show the characterization of FGFR and MERTK inhibition in BIN67 cell line. […] Four unique sequences per target were tested; GFP sequence is used as a negative scramble control. Cell viability was measured using CellTiter Glo.
Our finding of FGFRs as synthetic lethal targets, in both our HT-RNAi and compound pilot screens, in SCCOHT is novel. […] As we also identified FGFR inhibitors in our pilot compound screen, we further tested 8 FGFR inhibitors in vitro.

SMARCA2 protein = SMARCA2 protein level by Western blotting after HDAC inhibitor treatment; format: cell-based, human; details: BIN67 and SCCOHT1 cells; Western blotting (FIG. 18B)
Source text: FIGS. 18A-18D depict characterization of SMARCA4/A2 expression in SCCOHT cell lines. […] FIGS. 18C and 18D show Lentivirus-based re-expression of SMARCA4/A2 in BIN67 cells inhibits cell growth.
To understand the roles of these two mutually exclusive ATPases in SCCOHT etiology, we will elucidate the epigenetic consequences of re-expression of one or both SWI/SNF complex ATPases in SCCOHTs.

C/C=C1\NC(=O)[C@H]2CSSCC/C=C/[C@H](CC(=O)N[C@H](C(C)C)C(=O)N2)OC(=O)[C@H](C(C)C)NC1=O [Rombidepsin, Romidepsin]
sensitivity of SCCOHT cells to epigenetic agents [1]: most sensitive

COc1cc([C@@H]2c3cc4c(cc3[C@@H](O[C@@H]3O[C@@H]5CO[C@@H](C)O[C@H]5[C@H](O)[C@H]3O)[C@H]3COC(=O)[C@H]23)OCO4)cc(OC)c1O [etoposide]
hypersensitivity (screen hit) of BIN67 (BIN67): hypersensitivity

Cc1ccc(C(=O)Nc2ccc(CN3CCN(C)CC3)c(C(F)(F)F)c2)cc1C#Cc1cnc2cccnn12 [ponatinib]
IC50 (SCCOHT cell lines): 5 to 333 nM

CC(/C=C/C(=O)NO)=C\[C@@H](C)C(=O)c1ccc(N(C)C)cc1 [trichostatin A]
upregulation of SMARCA2 protein (SMARCA2 protein): dose-dependent upregulation

CC[C@]1(O)C[C@H]2CN(CCc3c([nH]c4ccccc34)[C@@](C(=O)OC)(c3cc4c(cc3OC)N(C=O)[C@H]3[C@@](O)(C(=O)OC)[C@H](OC(C)=O)[C@]5(CC)C=CCN6CC[C@]43[C@@H]65)C2)C1 [vincristine]
hypersensitivity (screen hit) of BIN67 (BIN67): hypersensitivity
